Data set [1] can be described thus: Mass balance of [14C]-AZD0328 in rats. It is filed as in vivo, rat. As to the method: In the mass balance study conducted in fed rats, a Tmax of 0.5 h to 1 h was observed following single and multiple oral doses (solution). The bioavailability of AZD0328 (total radioactivity) in this study was >90%. […] Generally speaking, the elimination was complete within the 24-hour interval at the dose levels tested.
Pharmacokinetics and mass balance of [^14C]-AZD0328 were investigated in rats. The excretion of [^14C]-AZD0328-derived radioactivity in rats was mainly through the kidney. Over the course of the study, radioactivity recovered in urine and feces accounted for approximately 85% and 8%, respectively.

A short description of data set [2]: Rat QWBA study. Conditions: single oral dose. The format is in vivo. How it is done: AZD0328 is a low protein binding molecule across species including human (<15%) across the concentration range 21.6 to […] (0.1 to 100 μM). In most species, the binding was concentration and gender independent. […] [14C]-AZD0328-derived radioactivity was rapidly distributed to the organs and tissues with high levels of radioactivity associated with the contents of the GI tract and the major excretion organs, including kidney and liver. The radioactivity declined rapidly and by 168 h postdose radioactivity levels were not detectable in most tissues, with the exception of a few ocular tissues and nasal turbinates. […] Notable association of [^14C]-AZD0328-related radioactivity with the melanin-containing tissues was observed, with measurable radioactivity still present in the ocular tissues at 216 h postdose. [14C]-AZD0328-derived radioactivity crossed the placenta.

The nature of data set [3]: Pharmacological activity of metabolite. How it is done: Pyridinyl methylation of AZD0328 was a unique polar metabolite (M2) observed in dog hepatocytes. Other minor hydroxylation/oxidation and glucuronide conjugation products were detected in monkey, dog, rat, and guinea pig hepatocyte incubations and mini-pig hepatic microsome incubations. […] Analysis of plasma and urine samples from either orally or iv dosed rats confirmed N-oxide product of AZD0328 was a main product in the excretion and circulation. The percentage of AZD0328 N-oxide in the plasma from male rats was much higher than from females.

As to `c1cnc2c(c1)C[C@@]1(CN3CCC1CC3)O2` [[^14C]-AZD0328], in data set [1], the “radioactivity recovered in feces” value is reported as around 8% and the “radioactivity recovered in urine” value is given as “approximately 85%”. Also, the “time of maximum blood and plasma concentrations of radioactivity” value in data set [2] stood at 0.5 h.

`[O-][N+]12CCC(CC1)C1(Cc3cccnc3O1)C2` (stereo not shown) [quinuclidinyl-N-oxide of AZD0328]: the “pharmacological activity of metabolite” value in data set [3] was “pharmacological inactive”.

The record behind these values is patent publication US20080242688A1, “Method 741” (ASTRAZENECA AB, priority 2007, published 2008).
